In ChEMBL document CHEMBL1201862, “PubChem BioAssay data set” (2004):
The source made the active and inactive calls.

Legend:
[1] = tested on: HEK293; test: EBV LMP1 TES2 canonical NF-kB signalling blockers – cell-based, HEK293, luciferase, cherry-pick, dose response (AID 588343); assay type: functional; conditions: Homo sapiens
[2] = target: T1, Corticotropin-releasing factor receptor 2/Corticotropin-releasing factor-binding protein (Homo sapiens, UniProt P24387+Q13324); test: Dose Response confirmation of uHTS hits for small molecule antagonists of the CRF-binding protein and CRF-R2 receptor complex.; assay type: functional; conditions: read-out: IC50_Mean
T1 sequence (Q13324 whole entry): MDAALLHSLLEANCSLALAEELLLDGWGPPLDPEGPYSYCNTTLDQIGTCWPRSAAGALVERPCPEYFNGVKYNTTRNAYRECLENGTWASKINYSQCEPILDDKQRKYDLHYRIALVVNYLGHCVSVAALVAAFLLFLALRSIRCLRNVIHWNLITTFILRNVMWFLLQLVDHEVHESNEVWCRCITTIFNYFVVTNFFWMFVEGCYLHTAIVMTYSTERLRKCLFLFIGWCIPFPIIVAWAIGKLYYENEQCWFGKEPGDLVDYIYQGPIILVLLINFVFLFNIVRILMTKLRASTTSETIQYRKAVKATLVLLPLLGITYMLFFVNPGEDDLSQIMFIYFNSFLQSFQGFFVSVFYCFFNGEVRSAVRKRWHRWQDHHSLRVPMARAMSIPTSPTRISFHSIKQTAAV
T1 sequence (P24387 whole entry): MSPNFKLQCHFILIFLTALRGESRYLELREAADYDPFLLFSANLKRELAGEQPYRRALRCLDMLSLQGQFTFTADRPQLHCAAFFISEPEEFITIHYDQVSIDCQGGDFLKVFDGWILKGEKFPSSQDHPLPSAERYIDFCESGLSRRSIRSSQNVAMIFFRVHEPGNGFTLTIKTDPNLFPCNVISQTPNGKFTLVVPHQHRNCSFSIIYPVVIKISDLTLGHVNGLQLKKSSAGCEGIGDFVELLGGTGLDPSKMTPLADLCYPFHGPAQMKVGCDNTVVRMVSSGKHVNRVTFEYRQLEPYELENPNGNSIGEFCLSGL

[3] = target: T1, Corticotropin-releasing factor receptor 2/Corticotropin-releasing factor-binding protein; test: activators of CRF receptor 2 with binding protein – uHTS hits, confirmation (AID 602473); assay type: functional; conditions: read-out: EC50_Mean
[4] = target: T2, Fatty acid synthase (Homo sapiens, UniProt P49327); test: inhibition of human FAS-TE enzyme activity – biochemical, endpoint fluorescence intensity, uHTS hits, dose response (AID 624327); assay type: functional;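 further: fluorescence from hydrolysis of an O-methyl fluorescein acyl ester substrate by the enzyme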
T2 sequence (P49327 whole entry): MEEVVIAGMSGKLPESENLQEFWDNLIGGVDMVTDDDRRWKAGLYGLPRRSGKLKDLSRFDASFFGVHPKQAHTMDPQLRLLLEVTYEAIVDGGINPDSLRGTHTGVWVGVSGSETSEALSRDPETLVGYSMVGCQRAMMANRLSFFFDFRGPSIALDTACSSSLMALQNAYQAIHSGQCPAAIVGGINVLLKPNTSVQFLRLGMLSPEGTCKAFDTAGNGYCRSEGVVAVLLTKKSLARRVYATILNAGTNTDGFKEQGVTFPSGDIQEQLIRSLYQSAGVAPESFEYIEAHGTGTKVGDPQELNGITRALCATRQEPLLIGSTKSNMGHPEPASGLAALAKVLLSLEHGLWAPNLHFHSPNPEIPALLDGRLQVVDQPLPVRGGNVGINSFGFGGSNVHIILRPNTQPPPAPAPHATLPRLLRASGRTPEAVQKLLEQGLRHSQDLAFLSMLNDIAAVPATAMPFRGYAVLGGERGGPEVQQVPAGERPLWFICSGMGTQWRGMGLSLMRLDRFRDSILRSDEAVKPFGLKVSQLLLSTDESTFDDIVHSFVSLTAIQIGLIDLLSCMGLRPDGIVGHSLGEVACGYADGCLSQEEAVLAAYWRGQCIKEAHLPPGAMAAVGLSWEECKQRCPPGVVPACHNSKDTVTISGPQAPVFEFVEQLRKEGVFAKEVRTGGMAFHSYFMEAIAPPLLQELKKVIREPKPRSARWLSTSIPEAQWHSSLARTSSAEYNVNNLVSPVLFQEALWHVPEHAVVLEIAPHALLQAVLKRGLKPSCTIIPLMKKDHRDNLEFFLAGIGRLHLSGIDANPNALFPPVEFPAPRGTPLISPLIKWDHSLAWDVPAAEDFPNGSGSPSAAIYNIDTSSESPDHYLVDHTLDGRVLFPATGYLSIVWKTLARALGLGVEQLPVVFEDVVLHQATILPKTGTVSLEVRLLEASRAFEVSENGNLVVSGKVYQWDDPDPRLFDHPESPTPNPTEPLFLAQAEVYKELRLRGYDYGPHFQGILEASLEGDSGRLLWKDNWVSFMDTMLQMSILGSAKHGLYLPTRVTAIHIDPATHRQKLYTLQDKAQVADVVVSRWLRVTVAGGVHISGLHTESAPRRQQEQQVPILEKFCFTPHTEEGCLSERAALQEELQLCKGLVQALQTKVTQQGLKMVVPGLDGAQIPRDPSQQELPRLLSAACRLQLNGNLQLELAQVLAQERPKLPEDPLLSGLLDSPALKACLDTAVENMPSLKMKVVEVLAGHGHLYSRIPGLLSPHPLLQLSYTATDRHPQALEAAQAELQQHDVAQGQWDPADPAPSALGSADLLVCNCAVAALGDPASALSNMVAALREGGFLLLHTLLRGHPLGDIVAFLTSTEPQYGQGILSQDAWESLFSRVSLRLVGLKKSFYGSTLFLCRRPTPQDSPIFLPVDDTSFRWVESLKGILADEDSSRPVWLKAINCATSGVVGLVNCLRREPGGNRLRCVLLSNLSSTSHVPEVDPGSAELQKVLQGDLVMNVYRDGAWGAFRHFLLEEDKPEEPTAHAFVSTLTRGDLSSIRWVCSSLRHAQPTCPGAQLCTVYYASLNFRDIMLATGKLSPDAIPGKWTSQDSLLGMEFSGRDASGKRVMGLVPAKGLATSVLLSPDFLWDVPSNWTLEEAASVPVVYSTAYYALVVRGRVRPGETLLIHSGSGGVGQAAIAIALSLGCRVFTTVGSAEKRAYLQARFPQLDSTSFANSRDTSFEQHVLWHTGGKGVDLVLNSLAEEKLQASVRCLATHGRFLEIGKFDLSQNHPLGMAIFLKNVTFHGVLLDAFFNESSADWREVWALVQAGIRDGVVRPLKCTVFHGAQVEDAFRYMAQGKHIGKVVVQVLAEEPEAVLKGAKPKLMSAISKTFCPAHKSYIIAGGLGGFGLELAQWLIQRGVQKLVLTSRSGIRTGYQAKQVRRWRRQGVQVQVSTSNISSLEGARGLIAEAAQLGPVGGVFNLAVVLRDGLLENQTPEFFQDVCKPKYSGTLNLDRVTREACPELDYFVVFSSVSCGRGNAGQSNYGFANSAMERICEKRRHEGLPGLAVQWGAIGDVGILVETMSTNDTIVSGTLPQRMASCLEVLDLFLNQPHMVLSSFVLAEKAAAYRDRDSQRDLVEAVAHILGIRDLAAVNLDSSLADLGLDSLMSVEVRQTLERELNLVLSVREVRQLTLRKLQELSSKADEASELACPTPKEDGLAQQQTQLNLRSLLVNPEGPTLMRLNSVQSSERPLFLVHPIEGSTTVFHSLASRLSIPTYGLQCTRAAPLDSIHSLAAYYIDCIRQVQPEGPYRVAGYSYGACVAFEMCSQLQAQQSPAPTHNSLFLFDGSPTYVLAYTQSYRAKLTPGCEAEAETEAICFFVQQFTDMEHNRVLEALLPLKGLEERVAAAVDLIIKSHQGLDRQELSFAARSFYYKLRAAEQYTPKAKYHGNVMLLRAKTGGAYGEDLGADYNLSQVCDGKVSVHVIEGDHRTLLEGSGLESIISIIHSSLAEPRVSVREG

[5] = target: T2, Fatty acid synthase; test: inhibition of human FAS-TE enzyme activity – biochemical, kinetic fluorescence intensity, dose response (AID 624326); assay type: functional;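 further: rate of fluorescence rise from hydrolysis of a fluorogenic O-methyl fluorescein ester substrate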
[6] = target: T3, RNA-binding protein pos-1 (Caenorhabditis elegans, UniProt G5EF15); test: disruptors of C. elegans POS-1 RNA interaction – biochemical, fluorescence polarization, dose response (AID 1964);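 further: purified POS-1 fused to maltose binding protein made in E. coli; potency of compounds blocking POS-1 binding to fluorescent RNA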
T3 sequence (G5EF15 whole entry): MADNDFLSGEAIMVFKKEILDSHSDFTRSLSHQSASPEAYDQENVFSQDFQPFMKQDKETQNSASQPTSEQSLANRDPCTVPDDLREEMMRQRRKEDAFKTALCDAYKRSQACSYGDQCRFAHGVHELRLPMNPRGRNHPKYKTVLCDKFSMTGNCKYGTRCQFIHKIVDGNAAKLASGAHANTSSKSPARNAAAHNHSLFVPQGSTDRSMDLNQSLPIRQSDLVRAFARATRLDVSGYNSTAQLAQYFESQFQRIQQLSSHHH

[7] = target: T4, Zinc finger protein mex-5 (Caenorhabditis elegans, UniProt Q9XUB2); test: potency of MEX-5 RNA-binding blockers – biochemical, C. elegans, fluorescence polarization, dose response (AID 1960)
T4 sequence (Q9XUB2 whole entry): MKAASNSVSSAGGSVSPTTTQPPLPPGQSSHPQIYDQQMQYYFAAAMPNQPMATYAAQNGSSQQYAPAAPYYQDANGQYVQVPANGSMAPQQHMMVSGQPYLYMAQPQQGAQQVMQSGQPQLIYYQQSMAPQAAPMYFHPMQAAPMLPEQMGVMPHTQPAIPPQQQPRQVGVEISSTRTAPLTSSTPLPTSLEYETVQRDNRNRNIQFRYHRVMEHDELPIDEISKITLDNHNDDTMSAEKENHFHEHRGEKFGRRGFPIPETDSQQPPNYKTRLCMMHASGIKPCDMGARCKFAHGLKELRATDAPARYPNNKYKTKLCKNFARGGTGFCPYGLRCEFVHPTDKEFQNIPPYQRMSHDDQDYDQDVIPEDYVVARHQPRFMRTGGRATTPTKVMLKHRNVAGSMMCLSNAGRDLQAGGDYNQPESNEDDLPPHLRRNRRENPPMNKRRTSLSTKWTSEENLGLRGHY

[8] = target: Cytochrome P450 3A4 (Homo sapiens, UniProt P08684); conditions: Potency;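 further: confirmatory qHTS run detecting inhibitors and substrates of CYP3A4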
Sequence of Cytochrome P450 3A4 (P08684 whole entry): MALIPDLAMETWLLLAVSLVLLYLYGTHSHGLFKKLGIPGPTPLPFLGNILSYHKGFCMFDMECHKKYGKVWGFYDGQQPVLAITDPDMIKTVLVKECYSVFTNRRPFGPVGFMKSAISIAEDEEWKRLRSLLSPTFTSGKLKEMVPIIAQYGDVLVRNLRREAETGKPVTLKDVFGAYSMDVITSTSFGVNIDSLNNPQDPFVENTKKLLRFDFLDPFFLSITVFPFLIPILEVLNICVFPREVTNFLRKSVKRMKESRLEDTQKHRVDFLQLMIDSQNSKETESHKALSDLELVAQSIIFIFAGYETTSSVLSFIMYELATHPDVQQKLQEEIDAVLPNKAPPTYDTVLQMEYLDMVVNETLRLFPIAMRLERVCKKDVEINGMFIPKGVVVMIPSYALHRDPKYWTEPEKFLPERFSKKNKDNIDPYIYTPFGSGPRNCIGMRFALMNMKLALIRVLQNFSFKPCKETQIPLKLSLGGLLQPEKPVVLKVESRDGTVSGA

[9] = target: T5, Heat shock factor protein 1 (Mus musculus, UniProt P38532); test: decrease of HSF1-responsive luciferase luminescence – cell-based, NIH3T3, dose retest, confirmation (AID 2382); assay type: functional;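 further: NIH3T3 fibroblasts with HSF1-driven luciferase reporter stressed by proteasome inhibitor MG132; luminescence from HSF1-driven luciferase expression after 8 hours of MG132 stress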
T5 sequence (P38532 whole entry): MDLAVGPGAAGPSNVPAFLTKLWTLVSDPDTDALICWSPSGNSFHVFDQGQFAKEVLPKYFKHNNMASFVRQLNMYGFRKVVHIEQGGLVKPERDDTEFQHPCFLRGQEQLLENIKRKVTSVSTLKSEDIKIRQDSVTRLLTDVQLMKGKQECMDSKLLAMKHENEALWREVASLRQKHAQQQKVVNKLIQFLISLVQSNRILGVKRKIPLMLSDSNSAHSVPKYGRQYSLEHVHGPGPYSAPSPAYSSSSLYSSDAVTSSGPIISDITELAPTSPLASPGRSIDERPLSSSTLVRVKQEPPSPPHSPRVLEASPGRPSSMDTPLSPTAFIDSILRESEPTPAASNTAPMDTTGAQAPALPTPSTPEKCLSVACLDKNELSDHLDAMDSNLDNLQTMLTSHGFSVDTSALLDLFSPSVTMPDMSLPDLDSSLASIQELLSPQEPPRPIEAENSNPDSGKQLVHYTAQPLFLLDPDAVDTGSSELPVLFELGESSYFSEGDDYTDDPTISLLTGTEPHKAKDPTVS

[10] = target: Nonstructural protein 1 (Influenza A virus, UniProt Q194T2); assay type: functional, Influenza A virus (A/California/07/2009(H1N1))
Sequence of Nonstructural protein 1 (Q194T2 whole entry): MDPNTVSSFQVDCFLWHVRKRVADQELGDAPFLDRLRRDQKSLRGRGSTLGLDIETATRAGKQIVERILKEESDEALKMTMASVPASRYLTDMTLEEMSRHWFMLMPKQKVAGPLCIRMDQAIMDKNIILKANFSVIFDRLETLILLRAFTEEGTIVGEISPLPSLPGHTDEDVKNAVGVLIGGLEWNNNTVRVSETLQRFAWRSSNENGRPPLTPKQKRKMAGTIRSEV

[11] = cells; assay type: functional, cell-based
[12] = cells; assay type: functional, cell-based; remark: listed apart in the source
[13] = tested on: INS1; test: INS-1E survival protection against cytokine death – cell-based, luminescence, retest, dose response (AID 449756); assay type: functional; conditions: Rattus norvegicus;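 further: cell death triggered by IL-1 beta plus TNF-alpha plus IFN-gamma mixture; protective hits raise ATP signal compared with cytokine alone wells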
[14] = target: Luciferin 4-monooxygenase (Photinus pyralis, UniProt P08659); test: inhibition of purified Photinus pyralis luciferase – biochemical, luminescence, dose response (AID 1891)
Sequence of Luciferin 4-monooxygenase (P08659 whole entry): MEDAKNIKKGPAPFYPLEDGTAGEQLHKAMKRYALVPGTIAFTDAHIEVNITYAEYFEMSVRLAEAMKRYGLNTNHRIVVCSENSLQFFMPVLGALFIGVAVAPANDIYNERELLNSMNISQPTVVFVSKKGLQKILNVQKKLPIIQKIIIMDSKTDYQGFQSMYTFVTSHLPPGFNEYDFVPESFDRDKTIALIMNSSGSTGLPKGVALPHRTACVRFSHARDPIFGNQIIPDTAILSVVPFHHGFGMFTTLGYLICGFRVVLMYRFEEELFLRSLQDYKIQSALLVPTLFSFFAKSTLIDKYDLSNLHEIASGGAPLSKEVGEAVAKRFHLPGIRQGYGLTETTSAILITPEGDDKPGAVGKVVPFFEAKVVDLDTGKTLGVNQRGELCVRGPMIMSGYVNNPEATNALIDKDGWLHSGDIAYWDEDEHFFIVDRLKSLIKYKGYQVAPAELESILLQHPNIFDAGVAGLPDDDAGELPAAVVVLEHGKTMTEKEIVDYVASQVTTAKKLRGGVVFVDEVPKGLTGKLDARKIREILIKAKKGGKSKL

[15] = Luminescence Cell-Based Dose Confirmation HTS to Identify Inhibitors of Platelet Dense Granule Release. [Related pubchem assays: 1663 (Primary HTS), 1678 (Summary of Project)]; assay type: functional

In the case of `O=C(NCCc1ccccc1)c1ccccc1Cl`, the AC50 [1] was 3.98 µM (active).

With `CCc1ccc(NC(=O)CSc2nc(N)c(NC(=O)c3ccc(F)c(F)c3)c(O)n2)cc1` the IC50 [2] was > 47.1 µM (inactive) and the EC50 [3] was > 53 µM (inactive).

In the case of `CCNc1ccc(S(=O)(=O)N(C)C)cc1NCC(=O)Nc1ccc(F)c(Cl)c1`, the IC50 [4] was 12.4 µM (active) and the IC50 [5] was 18.2 µM (active).

For `CCOc1ccc(CNC(=O)CCC(=O)N2Cc3cccc(OC)c3Oc3ncccc32)cc1`, the IC50 [2] was > 47.1 µM (inactive) and the EC50 [3] was > 53 µM (inactive).

For `CCOC(=O)C1Nc2c(F)cc(C)cc2C2C=CCC12` (centres undefined), the EC50 [6] was > 300 µM (not active) and the EC50 [7] was > 300 µM (not active).

For `COC(=O)[C@]1(C)CC[C@@]2(C)CC[C@@]3(C)C4=CCc5c(cc(O)c(O)c5C)[C@]4(C)CC[C@@]3(C)C2C1` (some centres undefined), the AC50 [8] was 39.8 µM (inconclusive).

In the case of `COc1ccc(C(=O)NNC(=O)c2cnccn2)cc1[N+](=O)[O-]`, the EC50 [6] was 25.3 µM (active), the EC50 [9] was > 195 µM (not active) and the EC50 [7] was 1.72 µM (active).

In the case of `CN(C)c1ccc(C=C2C=CC=C2)cc1`, the IC50 [10] was 31.5 µM (active).

For `O=C(CSc1nc2ccccc2c(=O)n1CCCN1CCOCC1)Nc1ccc(Br)cc1`, the AC50 [1] was > 350 µM (inactive).

With `CCCCN(C=O)c1c(CC)nc2c(OCc3ccc(Cl)cc3Cl)cccn12` the IC50 [4] was 6.01 µM (active) and the IC50 [5] was 8.19 µM (active).

In the case of `CCCc1cc(O)nc(SCC(=O)N(CCC#N)c2ccc3c(c2)OCCO3)n1`, the IC50 [2] was > 47.1 µM (inactive) and the EC50 [3] was > 53 µM (inactive).

With `O=C(COC(=O)c1cc(F)c(F)cc1Cl)NC1CCCCCC1` the IC50 [4] was 13.1 µM (active) and the IC50 [5] was 6.86 µM (active).

With `COc1cccc(/C=N/Nc2ncnc(N)c2[N+](=O)[O-])c1OC` the EC50 [6] was 18.4 µM (active), the AC50 [1] was 3.91 µM (active) and the EC50 [7] was > 300 µM (inconclusive).

For `O=C(N/N=C/c1c(O)ccc2ccccc12)c1ccc(CO)nc1`, the IC50 [10] was 10.6 µM (active), the EC50 [11] was > 350 µM (not active) and the EC50 [12] was 10.8 µM (active).

In the case of `COc1cccc(/C=N/NC(=O)CN2CC(c3ccccc3)CC2=O)c1O` (centres undefined), the AC50 [13] was 6.51 µM (active).

In the case of `O=c1oc2ccccc2c(O)c1/C=N/c1ccccn1`, the EC50 [14] was > 112 µM (not active), the AC50 [1] was 162 µM (active) and the EC50 [15] was > 112 µM (not active).

In the case of `COc1ccc(C2C(C#N)=C(/N=C/N3CCN(C)CC3)OC3=C2C(=O)CC(C)(C)C3)cc1OC` (centres undefined), the EC50 [6] was > 300 µM (not active) and the EC50 [7] was > 300 µM (not active).

In the case of `CCCCNC(=O)C(c1ccc(OCC(=O)OC)c(C(=O)OC)c1)N(CCC1=CCCCC1)C(=O)CCCCCN1C(=O)NC(c2ccc(-c3ccccc3)cc2)C(C(=O)OCc2ccccc2)=C1C` (centres undefined), the AC50 [8] was 2.51 µM (inconclusive).
